Results from patent publication US20240285808A1, “MOLECULAR PROBES FOR IN VIVO DETECTION OF ALDEHYDES” (The General Hospital Corporation, priority 2021, published 2024).

Experiments:
[1] = Biodistribution of ^nat/52Mn-based probes in naïve mice; assay type: in vivo, mouse; conditions: 24 h post injection
Procedure: Example 32. Radiolabeling of Compounds 15-18 with ^52Mn and Preparation of ^52/natMn Complex
^52MnCl2 (5 mCi) was received from the cyclotron facility at the Alabama at Birmingham and diluted to 500 μL with 0.1 M HCl. Solution of […] (50 μL, 1.0 mg in 1 mL of 1.5 M NaOAc buffer, pH 4.5) was mixed with 50 μL of ^52MnCl2. The reaction mixture was kept at room temperature for 15 min and diluted with 200 μL of sterile PBS. The injected dose of ^52/natMn complex was obtained by mixing solution of ^52Mn labeled Compound 15-18 with stock solution of ^natMn labeled Compound 15-18 (^natMn final concentration: 30 mM).
Bleomycin-injured mice at 14 days after injury were sedated and then injected with Compound 19, Compound 20, Gd-CHyd (Akam, E. A., et al. Improving the reactivity of hydrazine-bearing MRI probes for in vivo imaging of lung fibrogenesis. Chemical Science 11, 224-231 (2020)) formulated to contain an equal concentration of Eu-DOTA as a non-binding control probe. Animals were then euthanized at 30 minutes after injection. The lungs were harvested separately, along with blood, tail and liver. Each sample was analyzed by ICP-MS for gadolinium and europium content, and the lungs were also assessed for hydroxyproline content. Selectivity is reported as the ratio of Gd to Eu. All animals were dosed via tail vein injection at 100 nmol/g body weight from 30 mM solutions of gadolinium probes with 30 mM Eu-DOTA as determined by ICP-MS. For PET probes, Compounds 1-8 were radiolabeled with either ^68Ga or ^64Cu and the dose was delivered as a bolus injection through tail vein. Animals were euthanized 90 min post injection and their organs and tissues were harvested and counted using a gamma counter. For an imaging study with a PET tracer, animals were injected inside PET/MRI scanner and scanned dynamically for 60 min under anesthesia. The animals were euthanized 90 min post injection and their organs and tissues were counted using a gamma counter. The biodistribution of Mn-15, Mn-16, Mn-17, and Mn-18 was determined by injecting a mixture of ^52/nat complex into naïve mice and activity in each tissue were measured 24 hours post injection.

[2] = Stability of compounds in human plasma; assay type: in vitro ADME; conditions: 37° C., 2 or 3 hours
Procedure: Stability of Compounds in Human Plasma:
A 16 μL aliquot of the Gd or Mn complex (1.0 mM) was added to 500 μL of human plasma (Lampire Biological laboratories). The solution was then incubated for 2 or 3 hours at 37° C. Aliquots (50 μL) were removed at 1, 2 or 3 hours. Proteins were precipitated by the addition of 150 μL of acetonitrile and removed following centrifugation. The supernatant was then analyzed using HPLC-ICP-MS. No unchelated gadolinium was observed nor the appearance of any new Gd/Mn-containing species.

[3] = Reaction rates with butyraldehyde by UV-visible measurements (Method D); assay type: physicochemical; conditions: for k (second order / condensation rate constant): Method d: butyraldehyde 1 mM, Mn complex 0.04-0.10 mM, 25° C., PBS, absorbance 220 nm
Procedure: Method D: Reaction Rates with UV-Visible Measurements.
The molar extinction coefficient at 220 nm (ε220) of Mn-15, Mn-16 and Mn-17 was calculated using Beer-Lambert Law: A220=ε220Cl; where A220 is the absorbance at wavelength 220 nm, C is the concentration (M), and l is the cell path length (cm).
The kinetics for reactions of Mn-15, Mn-16 and Mn-17 with butyraldehyde were monitored spectrophotometrically by measuring the change in absorbance at 220 nm. All reactions were carried out at 25° C. in PBS. In each experiment [butyraldehyde]=1 mM and the concentrations of Mn-complex, 0.04 mM, 0.06 mM, 0.08 mM, and 0.10 mM, were varied to estimate the rate law.
At the beginning of the reaction (t=0), the concentration of the starting Mn complex is a0 and the concentration of the aldehyde condensation product is zero. After time t the concentration of the product is x, and the concentration of remaining Mn complex starting material is a0-x. For a first-order reaction
where I is the constant of integration and kobs is the observed rate constant. The rate law and a corresponding second order rate constant k were estimated by plotting reaction velocity as a function of Mn—N(where Mn—N refers to Mn-15, Mn-16, or Mn-17) concentration.
The concentration of Mn—N-Ald (where Mn-Ald refers to the reaction product with either Mn-15, Mn-16, or Mn-17) can be estimated by the following equations, where A0 is the absorbance of Mn—N and A is the absorbance of reaction mixture after time t,
The novel Mn-PC2A derivatives (FIG. 1A) were synthesized in 6 steps from the pyclen macrocycle. Hydrazone formation kinetics with butyraldehyde as a model compound were measured by UV spectroscopy at 220 nm, 25° C., pH 7.4, PBS. Hydrazone hydrolysis kinetics were measured by HPLC with UV detection at 220 nm using excess formaldehyde to trap the liberated hydrazine and prevent the reverse reaction. Allysine-modified BSA (BSA-Ald, 17.4 mg/mL, […] aldehyde) as a soluble model protein or BSA (17.3 mg/mL, 16.8 μM aldehyde) and Mn-15 or Mn-17 (50-200 μM) were incubated at 37° C. for 3 hours, and 1/T1 was measured at 1.4 T, 37° C., and plotted vs concentration to obtain relaxivity. The protein bound probe was isolated by ultrafiltration and the relaxivity of the protein-bound fraction measured. All Mn concentrations were measured by ICP-MS. Liver fibrosis was induced in male C57BL/6 mice by oral gavage with CCl4 for 12 weeks, 2-3 times per week, while control mice received vehicle (olive oil). 3D FLASH images (TR/TE/FA=15 ms/2 ms/30°, 0.25 mm^3 spatial resolution) were acquired on a 4.7 T Bruker Biospec prior to and dynamically for 40 min p.i. of 100 μmol/kg Mn-15. Liver to muscle contrast to noise was calculated as CNR=(SILiver−SIMuscle)/SDAir where SI=signal intensity and SD=standard deviation in SI.

Structure (SMILES)	Biodistribution, Blood [1] [% ID/g]	Biodistribution, Bone [1] [% ID/g]	Biodistribution, Brain [1] [% ID/g]	Biodistribution, Heart [1] [% ID/g]	Biodistribution, Intestine [1] [% ID/g]	Biodistribution, Kidney [1] [% ID/g]	Biodistribution, Liver [1] [% ID/g]	Biodistribution, Lung [1] [% ID/g]	Biodistribution, Muscle [1] [% ID/g]	Biodistribution, Skin [1] [% ID/g]	Biodistribution, Spleen [1] [% ID/g]	Biodistribution, Stomach [1] [% ID/g]	stability in human plasma (HPLC-ICP-MS) [2]	k (second order / condensation rate constant) [3] [M⁻¹ s⁻¹]	fold higher condensation (hydrazone formation) rate constant compared to Mn-17 [3] [fold]
CN(C)C(CCC(=O)NCCCN1CCN(CC(=O)[O-])Cc2cccc(n2)CN(CC(=O)[O-])CC1)C(=O)O.[Mn+2] (stereo not drawn) [Mn-18]	0.0013	0.0227	0.0145	0.0364	0.0355	0.5290	0.1833	0.0599	0.0132	0.0243	0.0616	0.0477			
NN1CCN(C(=O)CCC(C(=O)[O-])N2CCN(CC(=O)[O-])CCN(CC(=O)[O-])CCN(C(CCC(=O)N3CCN(N)CC3)C(=O)[O-])CC2)CC1.[Gd+3] (stereo not drawn) [Gd-9, cis-1,4-Gd-(CHyd)2]													lack of de-chelation or formation of Gd-containing metabolites		
NOC(CCC(=O)NCCCN1CCN(CC(=O)[O-])Cc2cccc(n2)CN(CC(=O)[O-])CC1)C(=O)O.[Mn+2] (stereo not drawn) [Mn-16]	0.0051	0.1378	0.0275	0.1579	0.1330	0.9664	0.3950	0.4469	0.0669	0.9457	0.1978	0.1638		2.5	
NNC(CCC(=O)NCCCN1CCN(CC(=O)[O-])Cc2cccc(n2)CN(CC(=O)[O-])CC1)C(=O)O.[Mn+2] (stereo not drawn) [Mn-15]	0.0018	0.0385	0.0156	0.0532	0.0665	0.7021	0.2186	0.1312	0.0154	0.0719	0.0843	0.0759		12.1	3
NNCC(=O)NCCCN1CCN(CC(=O)[O-])Cc2cccc(n2)CN(CC(=O)[O-])CC1.[Mn+2] [Mn-17]	0.0020	0.0414	0.0170	0.0675	0.0556	0.5387	0.2125	0.1954	0.0196	0.0925	0.0965	0.0681		4.6	
NN1CCN(C(=O)CCC(C(=O)[O-])N2CCN(CC(=O)[O-])CCN(C(CCC(=O)N3CCN(N)CC3)C(=O)[O-])CCN(CC(=O)[O-])CC2)CC1.[Gd+3] (stereo not drawn) [Gd-10, trans-1,7-Gd-(CHyd)2]													lack of de-chelation or formation of Gd-containing metabolites		
